Test results as given in publication PMC2897805, “Evolution of AANAT: expansion of the gene family in the cephalochordate amphioxus” (2010).
pIC50: −log10 of the molar value.

Molecular target: T1, bfAANATα (Branchiostoma floridae, UniProt B9TUB5)
T1 construct: gene AANATalpha; full-length cDNA clone from B. floridae head, GST fusion (pGEX 4T-1), E. coli BL21Gold(DE3) pLysS
T1 sequence (B9TUB5 1-247): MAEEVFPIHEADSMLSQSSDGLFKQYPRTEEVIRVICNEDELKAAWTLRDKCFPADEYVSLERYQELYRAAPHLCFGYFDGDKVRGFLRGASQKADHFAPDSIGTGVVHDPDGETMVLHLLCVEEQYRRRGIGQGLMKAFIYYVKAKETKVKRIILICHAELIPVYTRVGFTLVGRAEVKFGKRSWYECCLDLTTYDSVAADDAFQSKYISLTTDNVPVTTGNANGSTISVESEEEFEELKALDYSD
Assay: acetyltransferase activity assay, recombinant GST fusion; also displaces CoA-HNE
Assay type: biochemical

How did the pIC50 turn out when CC(C)(CO[P@@](=O)(O)O[P@@](=O)(O)OC[C@H]1O[C@@H](n2cnc3c(N)ncnc32)[C@H](O)[C@@H]1OP(=O)(O)O)[C@@H](O)C(=O)NCCC(=O)NCCSCC(=O)NCCc1c[nH]c2ccccc12 [CoA-T] was run?
The pIC50 was 5.52.
